Series [1] in a line: Pharmacokinetics and tissue distribution after bolus IV, IP, SC and PO administration in mice. It counts as in vivo, female Crl: CD1 mice. The conditions noted are these: daily bolus administrations of 30 mg/kg (SC) or 20 mg/kg (IP).
Series [2] concerns human breast tumor (MDA-MB-231) xenografts. The experiment in a line: Human MDA-MB-231 breast tumor xenograft efficacy. It is filed as in vivo, HRLN female nude mice. The note with it: for T/C / %T/C: day 21; for %T/C: P < 0.0001. As for the experimental part: The antitumor activity of the compound of Formula I was further tested in a human MD-MB-231 breast cancer model in mice. HRLN female nude mice (8 weeks of age) were treated with 5x10^6 MDA-MB-231 tumor cells (SC) in the right flank. Animals were randomized (ten per group) when tumors reach an average size of 80 - 120 mg and treatment began according to the table below. For these studies, the compound of Formula I was formulated in 5% ethanol, 5% PEG-400, 15% Polysorbate 80, and 75% of water containing 5% dextrose.
Tumor measurements were taken twice weekly using calipers and were converted to tumor mass (in milligrams) using the formula: with^2 (mm) x length (mm) x 0.52. Body weights were also recorded twice weekly. Statistical analysis was done using the unpaired two-tailed Student's t test.
On the technique in general: A xenograft is tissue or cells of one species grown in another, often human tumour cells in immunodeficient mice.

A short description of series [3]: Maximum tolerated dose and tolerability of bolus administration in mice. It counts as in vivo. The conditions noted are these: for MTD: mouse, in vivo.
In series [4] the test system is orthotopic C6 glioma tumor xenograft. Nature of the series: Orthotopic C6 glioma tumor xenograft survival model. It counts as in vivo, CD1 female nude mice. The conditions noted are these: IP 30 mg/kg days 1, 2 and 3, then 10 mg/kg days 4 and 5 and 9 to 38. As for the experimental part: The antitumor activity of the compound of formula I was further tested in a orthotopic C6 glioma tumor xenograft model in mice. CD1 female nude mice (6 weeks of age) were grafted intra-cerebrally with 5 x 10^4 (volume of 10 microliters) rat C6 glioma cells (day 0). Treatment was initiated 24 h after tumor cell implantation. The compound of Formula I was administered intraperitoneally (IP) at a concentration of 30 mg/kg (volume of 10 mL/Kg) on days 1, 2 and 3 followed by IP injections of 10 mg/kg on days 4 and 5 and 9 to 38. Vehicle (30% PEG; 30% PG; 40% H2O was injected in a volume of 10 mL/kg using the same route and schedule.
Body weight of animals was monitored every other day and the effect of the compound of Formula I on growth of intracerebral glioma tumors was evaluated by mouse survival and percentage increase in life span (%ILS, expressed as mean survival time of treated animals minus the mean survival time of the control group). By criteria established by the National Cancer Institute, increases in life span exceeding 25% indicate that the drug has significant antitumor activity (Plowman et al. (1997) Human tumor xenografts models in NCI drug development. In: Theicher BA (ed) Anticancer drug development guide: prescreening, clinical trials and approval. Human press, Totowa, pp 101-125). Statistical analysis of mouse survival was performed by Kaplan-Mayer analysis. […]

A short description of series [5]: Population pharmacokinetic analysis (NONMEM), rat. It is filed as in vivo. The note with it: Rat (IV+CIV). On the procedure: An analysis was performed to derive allometric equations for Formula I pharmacokinetic parameters using Formula I plasma concentration-time data from three species, including mouse, rat, and monkey, and to estimate human pharmacokinetic parameters from those allometric equations.
Plasma concentrations of Formula I were obtained from mice, rats, and monkeys following intravenous injection or continuous infusion. Formula I pharmacokinetic parameters in mice, rats, and monkeys were estimated using population pharmacokinetic analysis, a function of the software program NONMEM™ (version 5). Typical population pharmacokinetic parameters for Formula I in humans were extrapolated from allometric equations that were derived from pharmacokinetic parameters estimated in the three animal species.
A two-compartment model with a first-order elimination from the central compartment adequately described Formula I plasma concentration-time profiles following intravenous bolus injection (30 mg/kg) in mice and rats, 7-day continuous infusion in rats (50 to 170 mg/kg/day), and 14-day continuous infusion in monkeys (5 to 30 mg/kg/day).

Where [6] appears, read: typical population PK parameter.

What is called T/C is the ratio of treated to control. A word on the MTD: it is the largest dose that counted as tolerated. A low value points to a narrow tolerated range.

Each structure is given as a SMILES string.

With `CC(C)=CCC/C(C)=C/CC/C(C)=C/CN1C(=O)c2cccc(O)c2Nc2c(O)cc(O)cc21` [Formula I, 10-farnesyl-4,6,8-trihydroxy-dibenzodiazepin-11-one], in series [1], the sustained plasma concentrations lay within 1 to 2 µM. In addition, the T/C in series [2] (IP 30 mg/kg every three days x 7, P = 0.0007) amounted to 58%; in series [2] (SC 50 mg/kg every three days x 7, P= 0.0019) it was 68%. The “%T/C” value in series [2] (SC 20 mg/kg everyday for 21 days) was determined as 40%; in series [2] (SC 30 mg/kg days 1 to 5, 8 to 12), 35%. Also, the antitumor activity entry in series [2] (bolus intravenous treatment (100 mg/kg, 5/2/5/2/5)) is “did not result in activity”. Also, the tolerability finding result is “some intestinal occlusion” in series [3] (IP bolus dosing); “swelling and thickening of the skin” in series [3] (SC bolus dosing). The MTD in series [3] (IP bolus) is 20 mg/kg; in series [3] (IV bolus), 200 mg/kg; in series [3] (SC bolus) it was 30 mg/kg. Moreover, the “increase in life span” value in series [4] was 29%. This molecule also displayed an increase survival in series [4] of 7 days. For the same molecule, the Q in series [5] (WT 0.225 Kg) is 0.016 L/h; in series [5] (setting [6]), 1.16 mL/min/kg. Further, the V1 in series [5] (WT 0.225 Kg) stood at 0.028 L; in series [5] (setting [6]) it was 0.126 L/kg. Besides, the V2 in series [5] (WT 0.225 Kg) is recorded as 0.053 L; in series [5] (setting [6]) it was 0.236 L/kg. The molecule further had a Ke in series [5] (setting [6]) of 8.651 h⁻¹.

For the origin of these results see patent EP1733758A1, “Methods for administration of a farnesyl dibenzodiazepinone” (Ecopia Biosciences Inc., priority 2005, dated 2006).
